System: drosophila
Test: alcohol sedation model: recovery of drosophila after acute alcohol exposure
Type: in vivo
Conditions: FIG. 1; acute alcohol exposure over time; agents in fly food at least two days before exposure
Experimental: This invention used a modified version of the alcohol sedation model disclosed by Sandhu et al to evaluate the effects of acute alcohol exposure in drosophila. For example, in one of the models, for at least two days prior to alcohol exposure, drosophila consumed standard fly food combined with placebo or investigational agents. The drosophila were then moved to empty, foam stopper-covered vials and allowed to acclimate before the foam stoppers were injected with 1 ml 100% ethanol. At different time intervals, it was noted how many drosophila in each vial lost consciousness. […] The average recovery score was calculated by averaging the recovery scores of individual drosophila. Increasing the extent of alcohol exposure led to greater alcohol toxicity, including substantial death. In the following examples, a modified version of the alcohol sedation model employed by Sandhu et al. (“An Inexpensive, Scalable Behavioral Assay for Measuring Ethanol Sedation Sensitivity and Rapid Tolerance in Drosophila,” J Vis Exp. Author manuscript; available in PMC 2016 Apr. 15) to evaluate the effects of acute alcohol exposure was used. For at least two days prior to alcohol exposure, flies consumed standard fly food combined with placebo or investigational agents. […] The average recovery score is calculated by averaging the recovery scores of individual flies. […]

NCCS(=O)(=O)O [taurine]
recovery from consumption of alcohol in comparison with no taurine added (placebo): accelerates recovery from consumption of alcohol
